Test results taken from the supplement of paper PMC13380429.

Assays:
Conditions in all cases: 72 h
[1] = tested on: U2OS; test: cell viability relative to DMSO; higher = less toxic
[2] = tested on: Vero E6; test: as above
[3] = tested on: Caco-2; test: as above
[4] = tested on: Calu-3; test: as above
[5] = tested on: HepG2; test: as above
[6] = tested on: U2OS; test: relative viability EC50 (midpoint between 100% and the lowest measured viability); higher = less toxic
[7] = tested on: Vero E6; test: as above
[8] = tested on: Caco-2; test: as above
[9] = tested on: Calu-3; test: as above
[10] = tested on: HepG2; test: as above
[11] = tested on: U2OS; test: drug sensitivity score (DSS) for viability; higher = more toxic; extreme values may be limits of the assay
[12] = tested on: Vero E6; test: as above
[13] = tested on: Caco-2; test: as above
[14] = tested on: Calu-3; test: as above
[15] = tested on: HepG2; test: as above

| Compound | cell viability ([1]; 1 nM) [%] | cell viability ([1]; 10 nM) [%] | cell viability ([1]; 100 nM) [%] | cell viability ([1]; 1000 nM) [%] | cell viability ([1]; 10000 nM) [%] | cell viability ([2]; 1 nM) [%] | cell viability ([2]; 10 nM) [%] | cell viability ([2]; 100 nM) [%] | cell viability ([2]; 1000 nM) [%] | cell viability ([2]; 10000 nM) [%] | cell viability ([3]; 1 nM) [%] | cell viability ([3]; 10 nM) [%] | cell viability ([3]; 100 nM) [%] | cell viability ([3]; 1000 nM) [%] | cell viability ([3]; 10000 nM) [%] | cell viability ([4]; 1 nM) [%] | cell viability ([4]; 10 nM) [%] | cell viability ([4]; 100 nM) [%] | cell viability ([4]; 1000 nM) [%] | cell viability ([4]; 10000 nM) [%] | cell viability ([5]; 1 nM) [%] | cell viability ([5]; 10 nM) [%] | cell viability ([5]; 100 nM) [%] | cell viability ([5]; 1000 nM) [%] | cell viability ([5]; 10000 nM) [%] | relative viability EC50 [6] [µM] | relative viability EC50 [7] [µM] | relative viability EC50 [8] [µM] | relative viability EC50 [9] [µM] | relative viability EC50 [10] [µM] | drug sensitivity score [11] | drug sensitivity score [12] | drug sensitivity score [13] | drug sensitivity score [14] | drug sensitivity score [15] |
| --- | --- | --- | --- | --- | --- | --- | --- | --- | --- | --- | --- | --- | --- | --- | --- | --- | --- | --- | --- | --- | --- | --- | --- | --- | --- | --- | --- | --- | --- | --- | --- | --- | --- | --- | --- |
| O=C(c1cc(C2CC2)on1)N(C1CCCCC1)C1CCCCC1 [CYM-5541] | 98 | 97.8 | 96.3 | 97.2 | 94.4 | 106 | 103 | 99.5 | 95.3 | 99.6 | 94.9 | 97.8 | 97.5 | 99.4 | 90 | 102 | 98.1 | 97.2 | 96.8 | 99 | 98.6 | 93.9 | 98.4 | 92.3 | 89.6 | > 10 | > 10 | > 10 | > 10 | > 10 | 0 | 0 | 0 | 0 | 0 |
| OC[C@@H](O)[C@@H](O[C@@H]1O[C@H](CO)[C@H](O)[C@H](O)[C@H]1O)[C@H](O)[C@@H](O)CO [D-LACTITOL MONOHYDRATE] | 101 | 96.9 | 95.6 | 99.8 | 103 | 100 | 98.6 | 95.4 | 92.8 | 99.3 | 92.3 | 92.3 | 98.6 | 103 | 97.2 | 106 | 94.9 | 99.6 | 96.3 | 93.5 | 94 | 105 | 96.2 | 89.2 | 97.4 | > 10 | > 10 | > 10 | > 10 | > 10 | 0 | 0 | 0 | 0 | 0 |
| CCN(CC)c1ccc(/C=N/NC(=O)c2ccc(O)cc2)cc1 [DY131] | 99.6 | 97.5 | 101 | 95.4 | 97.6 | 107 | 98.3 | 101 | 102 | 95.1 | 94.3 | 96.4 | 98.4 | 95.4 | 98.2 | 95.4 | 91.5 | 99.8 | 97.8 | 95.3 | 102 | 105 | 95.9 | 105 | 83.4 | > 10 | > 10 | > 10 | > 10 | > 10 | 0 | 0 | 0 | 0 | 0.2 |
| C[C@]12CCC(=O)C[C@@H]1CC[C@@H]1[C@@H]2CC[C@]2(C)[C@@H](O)CC[C@@H]12 [Dihydrotestosterone] | 98.2 | 104 | 94.8 | 103 | 98.9 | 106 | 99.3 | 101 | 100 | 104 | 108 | 93.1 | 103 | 102 | 97.5 | 97.6 | 99.9 | 101 | 98.9 | 94.3 | 112 | 95.8 | 99.3 | 106 | 95.3 | > 10 | > 10 | > 10 | > 10 | > 10 | 0 | 0 | 0 | 0 | 0 |
| c1cc(-c2sc(-c3ccncc3)c(-c3ccncc3)c2-c2ccncc2)ccn1 [GANT-58] | 102 | 99.2 | 99.8 | 97.8 | 99.2 | 93 | 106 | 91.7 | 96.4 | 111 | 105 | 99 | 94.6 | 92.6 | 86.6 | 98.3 | 94.8 | 95.3 | 88.5 | 106 | 90.9 | 102 | 97.8 | 118 | 103 | > 10 | > 10 | > 10 | > 10 | > 10 | 0 | 0 | 0.2 | 0 | 0 |
| CC(C)n1nnc2cc(C(=O)O)ccc21 [IBC-293] | 102 | 96 | 98.3 | 97.6 | 98.6 | 96.6 | 98.5 | 102 | 104 | 99.5 | 102 | 98 | 101 | 106 | 95.2 | 94.9 | 91 | 100 | 101 | 103 | 93.2 | 105 | 91 | 106 | 102 | > 10 | > 10 | > 10 | > 10 | > 10 | 0 | 0 | 0 | 0 | 0 |
| COC(=O)C[C@H]1CC(c2ccc(O)cc2)=NO1 [ISO-1] | 95.2 | 98.9 | 96.1 | 106 | 96.8 | 106 | 99.7 | 97.1 | 101 | 98.5 | 102 | 103 | 96.9 | 93.5 | 109 | 100 | 109 | 104 | 99.5 | 109 | 104 | 102 | 102 | 103 | 94.6 | > 10 | > 10 | > 10 | > 10 | > 10 | 0 | 0 | 0 | 0 | 0 |
